The text below walks through data of patent US9938560B2, “Methods for identifying modulators of Ras using nonlinear techniques” (Biodesy, Inc., priority 2012, dated 2018).

The target in one assay is T1, wt H-Ras (Homo sapiens, UniProt P01112).
T1 construct: fused on or other part: N-terminal 6x histidine tag, used to tether to Ni-NTA lipids; PyMPO-maleimide dye on native cysteine(s)
Nature of the assay: SHG detection of conformational change of labeled wt H-Ras tethered to a supported lipid bilayer. It counts as binding. The settings on record: cysteine-labeled H-Ras, serial dilutions, n=3; read-out: EC50 from SHG concentration response curve. Here is the method: Recombinant His-tagged (N-terminus) H-Ras protein was prepared according to standard protocols (6). The Ras protein prepared according to this protocol is bound to GDP. The protein was then labeled with PyMPO-maleimide, a cysteine-reactive dye in 0.1 M Tris pH 8.0, 20 mM NaCl, 0.5 mM TCEP, 5% glycerol and a 12:1 dye:protein ratio for one hour at room temperature. Unreacted dye was purified away by gel filtration. The resulting dye:protein ratio was 0.7:1 was determined spectrophotometrically. Cysteine-labeled Ras was then coupled directly to the membrane.
We labeled Ras using a standard protocol in pH 8.3 sodium bicarbonate buffer (Invitrogen, Inc.) and purified it by gel filtration and dialysis. Amine-labeled Ras was then coupled directly to the membrane.
Immediately before applying DOPC/DGS NTA (Ni) lipids, microscope slides were cleaned with Piranha wash for 20 minutes. […] Lateral mobility of the bilayers was confirmed by fluorescence recovery after photobleaching as known in the art. […]
PyMPO-SE was coupled to His-tagged wt K-Ras (Novus) using one of two protocols. […] The resulting dye:protein ratio was 0.7:1 as determined spectrophotometrically. […]
PyMPO-SE exposed to a blank bilayer (no protein) followed by washing led to no signal above background. Thus, the signal detected in the presence of protein after labeling is due to labeling of the protein itself while immobilized on the membrane. […]

The subject of assay [1] is Raf/Mek/Erk signaling pathway. The settings on record: previously shown, Grant et al., 2011; cited from earlier work.
The target in another assay is GTP-bound K-RAS (Homo sapiens, UniProt P01116). The settings on record: previously shown, Grant et al., 2011; cited from earlier work.
GTP-bound K-RAS, sequence (P01116 1-188 isoform P01116-2): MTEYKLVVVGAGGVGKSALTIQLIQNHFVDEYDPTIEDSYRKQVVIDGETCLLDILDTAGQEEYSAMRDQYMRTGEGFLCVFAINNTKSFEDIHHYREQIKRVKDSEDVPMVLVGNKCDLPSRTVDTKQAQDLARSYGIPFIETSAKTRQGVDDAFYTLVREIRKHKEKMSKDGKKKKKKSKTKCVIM
A further assay has as its target T2, G12V K-Ras (Homo sapiens, UniProt P01116, G12V).
T2 construct: made in house
Nature of the assay: SHG detection of structural change of constitutively active G12V K-Ras. It counts as binding. The settings on record: 10 μM; PyMPO-maleimide at Cys 118; FIG. 6B. The protocol:
PyMPO-SE is coupled to a G12V constitutively active mutant K-Ras (Abrams et al., Semin Oncol. 1996 February; 23(1):118-34) using one of the two protocols described in Example 3 above. Recombinant His-tagged (N-terminus) Ras proteins are prepared according to standard protocols (Hall et al., 2002, Proc. Nat. Acad. Sci., U.S.A., 99(19):12138-42). The Ras proteins prepared according to this protocol is bound to an SHG-active GTP analog (ATTO-390-GTP) or an SHG label is coupled to Cys 118 with PyMPO-maleimide, a cysteine-reactive dye in 0.1 M Tris pH 8.0, 20 mM NaCl, 0.5 mM TCEP, 5% glycerol and a 12:1 dye:protein ratio for one hour at room temperature. Unreacted dye is purified away by gel filtration. The resulting dye:protein ratio is determined spectrophotometrically.
Immobilized G12V mutant K-Ras is then exposed to compound 117028, which has been previously shown to decrease intracellular levels of GTP-bound K-RAS as well as to decrease activation of the Raf/Mek/Erk signaling pathway (Grant et al., 2011, PLoS One, 6(10):e25711, the disclosure of which is incorporated by reference herein). 10 μM of the compound in assay buffer is added over the wells followed by gentle mixing. Assay buffer was 20 mM Tris pH 8.0, 150 mM NaCl, 0.5 mM DTT, 0.15% DMSO. […]

The test system of assay [2] is Protein X. Nature of the assay: IC50 result for Protein X (independent biochemical assay).
For assay [3], the system named is Protein X. Nature of the assay: SHG (Biodesy) titration of ligands on Protein X bound to a supported lipid bilayer. The settings on record: Protein X on SLB; endpoint mode after 3 minutes of exposure; average of different days. The assay is classed as binding. The protocol: PyMPO-SE is coupled to His-tagged Protein X using the protocol described in the above Examples. Unreacted dye is purified by gel filtration. The resulting dye:protein ratio is determined spectrophotometrically. The supported bilayer membrane with Ni-NTA lipid is prepared as described in the Examples above. Recombinant His-tagged Protein X is incubated with the lipid bilayer at 5 μM for 20 minutes to produce a baseline signal following wash-out of unbound Protein X. A single ligand (denoted 3, 4 or 5) is exposed to Protein X on the surface and changes to the baseline SHG signal are measured in real time. A titration of the shift in SHG signal for each of the ligands as a function of ligand concentration is performed in endpoint mode, comparing the SHG signal after 3 minutes of exposure to the ligand at a given concentration to the baseline signal before exposure to the ligand.

The test system of assay [4] is Protein X. Nature of the assay: Biacore binding to Protein X.

T2 sequence (P01116 1-188 isoform P01116-2 G12V): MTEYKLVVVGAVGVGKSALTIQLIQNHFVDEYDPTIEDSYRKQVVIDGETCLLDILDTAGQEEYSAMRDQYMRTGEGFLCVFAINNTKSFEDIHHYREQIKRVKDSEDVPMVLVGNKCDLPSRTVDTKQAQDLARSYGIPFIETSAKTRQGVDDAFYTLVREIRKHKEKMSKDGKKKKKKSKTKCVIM
T1 sequence (P01112 whole entry, the tested form may be a part): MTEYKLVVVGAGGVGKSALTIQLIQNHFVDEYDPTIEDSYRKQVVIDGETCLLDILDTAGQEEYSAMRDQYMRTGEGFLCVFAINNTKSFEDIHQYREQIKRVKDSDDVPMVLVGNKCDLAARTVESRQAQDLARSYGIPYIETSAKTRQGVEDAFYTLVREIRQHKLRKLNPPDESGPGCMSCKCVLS

For the compound `Oc1c(CN2CCN(c3ccccc3)CC2)cc(Br)c2cccnc12` [Compound 1, 5-bromo-7-[(4-phenylpiperazin-1-yl)methyl]quinolin-8-ol], at wt H-Ras, the EC50 amounted to 4400 nM. Further, the “activation of the Raf/Mek/Erk signaling pathway” value in assay [1] is reported as “decrease”. In addition, the “intracellular levels of GTP-bound K-RAS” value on GTP-bound K-RAS is reported as “decrease”. Moreover, at G12V K-Ras, the “effect on the conformation of G12V K-Ras (SHG), protein labeled at Cys 118” value was “significant effect”.
Consider `O=C(CN1CCOCC1)NC1=Nc2ncccc2C(=O)NN1` [Compound 3], for which the IC50 (as a rule, the concentration that inhibits the measured activity by half) with Protein X [2] came to 950 nM. The same compound returned an EC50 in the assay on Protein X [3] of 670 nM. Also, the “Biacore Result” value in the assay with Protein X [4] is “Binds”.
